Laboratory results: ChEMBL document CHEMBL1201862, “PubChem BioAssay data set” (2004)
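Exposure lasted 48 hours, with cells grown in 96-well plates and compounds tested at five concentrations. GI50 marks 50% less growth.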 Active and inactive are the calls of the source. Cut-off read from the data, not from the text of the source: active = GI50 up to about 1.1 µM and inactive = higher.

Key:
Assay in all cases: inhibition of tumour cell growth, NCI panel, 48 h
OVCAR-8 = test system: OVCAR-8
HT-29 = test system: HT-29
UACC-62 = test system: UACC-62
HCT-116 = test system: HCT-116
RPMI-8226 = test system: RPMI-8226
SK-OV-3 = test system: SK-OV-3
DU-145 = test system: DU-145
HCT-15 = test system: HCT-15
UO-31 = test system: UO-31
BT-549 = test system: BT-549
MOLT-4 = test system: MOLT-4
MDA-MB-231 = test system: MDA-MB-231
K562 = test system: K562
NCI-H460 = test system: NCI-H460
SF-295 = test system: SF-295
HL-60 = test system: HL-60
NCI-H23 = test system: NCI-H23
KM12 = test system: KM12
Malme-3M = test system: Malme-3M
RXF 393 = test system: RXF 393

SMILES	GI50 (OVCAR-8)	GI50 (HT-29)	GI50 (UACC-62)	GI50 (HCT-116)	GI50 (RPMI-8226)	GI50 (SK-OV-3)	GI50 (DU-145)	GI50 (HCT-15) [µM]	GI50 (UO-31)	GI50 (BT-549)	GI50 (MOLT-4)	GI50 (MDA-MB-231)	GI50 (K562)	GI50 (NCI-H460)	GI50 (SF-295)	GI50 (HL-60)	GI50 (NCI-H23)	GI50 (KM12)	GI50 (Malme-3M)	GI50 (RXF 393)
CN(C)CC1CC/C(=C\c2ccc(O)cc2)C1=O (stereo not given)	4.6 µM (inactive)	3.04 µM (inactive)	6.12 µM (inactive)	2 µM (inactive)	1.02 µM (active)	18.4 µM (inactive)	16.1 µM (inactive)	2.21	12.9 µM (inactive)	2.06 µM (inactive)	1.69 µM (inactive)	4.14 µM (inactive)	0.975 µM (active)	17.5 µM (inactive)	19.2 µM (inactive)	0.631 µM (active)	6.67 µM (inactive)	4.18 µM (inactive)	2.94 µM (inactive)	2.07 µM (inactive)
O=CNc1ncn[nH]1	> 100 µM (inactive)	> 100 µM (inactive)	> 100 µM (inactive)	> 100 µM (inactive)	> 100 µM (inactive)	> 100 µM (inactive)	> 100 µM (inactive)	> 100	> 100 µM (inactive)	> 100 µM (inactive)	> 100 µM (inactive)	> 100 µM (inactive)	> 100 µM (inactive)	> 100 µM (inactive)	> 100 µM (inactive)	> 100 µM (inactive)	> 100 µM (inactive)	> 100 µM (inactive)	> 100 µM (inactive)	> 100 µM (inactive)
On1c(-c2ccccc2)nc2ccccc2c1=S	4 µM (inactive)	6.64 µM (inactive)	3.7 µM (inactive)	2.7 µM (inactive)	3.27 µM (inactive)	6.92 µM (inactive)	7.64 µM (inactive)	1.36	3.39 µM (inactive)	> 100 µM (inactive)	2.04 µM (inactive)	70.3 µM (inactive)	3.91 µM (inactive)	0.583 µM (active)	2.7 µM (inactive)	2.4 µM (inactive)	3.43 µM (inactive)	3.18 µM (inactive)	5 µM (inactive)	25.5 µM (inactive)
Nc1ncnc2c1ncn2[C@@H]1O[C@H](C(=O)O)[C@@H](O)[C@H]1O [5'-CARBOXY ADENOSINE]	> 100 µM (inactive)	> 100 µM (inactive)	> 100 µM (inactive)	> 100 µM (inactive)	> 100 µM (inactive)	> 100 µM (inactive)	> 100 µM (inactive)	> 100	> 100 µM (inactive)	> 100 µM (inactive)	> 100 µM (inactive)	> 100 µM (inactive)	> 100 µM (inactive)	> 100 µM (inactive)	> 100 µM (inactive)	> 100 µM (inactive)	> 100 µM (inactive)	> 100 µM (inactive)	> 100 µM (inactive)	> 100 µM (inactive)
COc1cc(C2c3cc4c(cc3OC(N3CCCCC3)C2C)OCO4)cc(OC)c1O (stereo not given)	13.4 µM (inactive)	8.75 µM (inactive)	4.23 µM (inactive)	4.59 µM (inactive)	9.35 µM (inactive)	5.89 µM (inactive)	19.5 µM (inactive)	11.6	15 µM (inactive)	10.5 µM (inactive)	6.12 µM (inactive)	9.38 µM (inactive)	4.06 µM (inactive)	6.64 µM (inactive)	3.7 µM (inactive)	4.15 µM (inactive)	18.7 µM (inactive)	5.89 µM (inactive)	4.36 µM (inactive)	14.5 µM (inactive)
O=C1C=C(Br)C(=O)C12CCc1ccccc12 (stereo not given)	14.9 µM (inactive)	14.8 µM (inactive)	16.8 µM (inactive)	10.5 µM (inactive)	3.05 µM (inactive)	27.4 µM (inactive)	16.2 µM (inactive)	7.53	18.5 µM (inactive)	17.9 µM (inactive)	2.43 µM (inactive)	28.4 µM (inactive)	2.52 µM (inactive)	22.6 µM (inactive)	18.6 µM (inactive)	2.69 µM (inactive)	19.7 µM (inactive)	21.1 µM (inactive)	14.6 µM (inactive)	9.14 µM (inactive)
